The results in this text go back to US6545049B1, “Dimer-selective RXR modulators and methods for their use” (Ligand Pharmaceuticals Incorporated, priority 1995, dated 2003).

The target of series [1] is T1, RXRα (Homo sapiens, UniProt P19793).
T1 sequence (P19793 1-462): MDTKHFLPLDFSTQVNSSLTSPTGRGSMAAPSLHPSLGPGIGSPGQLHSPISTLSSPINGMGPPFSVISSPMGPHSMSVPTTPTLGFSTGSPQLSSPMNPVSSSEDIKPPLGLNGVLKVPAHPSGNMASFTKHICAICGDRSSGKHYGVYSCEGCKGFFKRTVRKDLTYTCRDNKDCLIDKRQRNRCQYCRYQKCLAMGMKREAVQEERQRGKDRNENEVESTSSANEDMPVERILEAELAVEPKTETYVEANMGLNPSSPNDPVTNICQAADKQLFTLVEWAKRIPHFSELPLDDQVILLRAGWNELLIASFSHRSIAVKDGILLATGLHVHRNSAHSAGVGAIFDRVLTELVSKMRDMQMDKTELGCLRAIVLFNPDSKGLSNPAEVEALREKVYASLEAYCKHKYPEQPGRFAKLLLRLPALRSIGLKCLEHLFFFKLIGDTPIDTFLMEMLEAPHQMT
Description: RXR homodimer co-transfection assay, antagonist mode, RXRα. The note with it: read-out: RXRα Potency IC50; antagonist potency in the presence of the known RXR agonist LGD1069; CV-1 cells.

The target of series [2] is T2, RXRβ (Mus musculus, UniProt P28704).
T2 sequence (P28704 1-520): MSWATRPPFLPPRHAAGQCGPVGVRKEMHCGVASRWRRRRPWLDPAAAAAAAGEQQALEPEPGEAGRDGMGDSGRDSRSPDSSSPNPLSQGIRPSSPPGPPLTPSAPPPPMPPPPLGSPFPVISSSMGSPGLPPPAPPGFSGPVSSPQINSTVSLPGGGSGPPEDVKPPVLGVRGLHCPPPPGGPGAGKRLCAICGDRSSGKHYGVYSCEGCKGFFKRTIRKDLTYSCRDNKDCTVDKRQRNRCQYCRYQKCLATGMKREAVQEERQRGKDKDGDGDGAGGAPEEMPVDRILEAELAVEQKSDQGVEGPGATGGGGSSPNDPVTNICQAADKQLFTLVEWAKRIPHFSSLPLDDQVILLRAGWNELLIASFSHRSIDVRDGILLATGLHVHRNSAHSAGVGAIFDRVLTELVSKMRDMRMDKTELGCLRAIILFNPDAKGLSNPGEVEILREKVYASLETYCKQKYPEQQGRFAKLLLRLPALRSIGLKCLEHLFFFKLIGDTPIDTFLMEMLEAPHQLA
The experiment in a line: RXR homodimer co-transfection assay, antagonist mode, RXRβ. To be noted: read-out: RXRβ Potency IC50; antagonist potency in the presence of the known RXR agonist LGD1069; CV-1 cells.

In series [3] the target is T3, RXRγ (Mus musculus, UniProt P28705).
T3 sequence (P28705 1-463): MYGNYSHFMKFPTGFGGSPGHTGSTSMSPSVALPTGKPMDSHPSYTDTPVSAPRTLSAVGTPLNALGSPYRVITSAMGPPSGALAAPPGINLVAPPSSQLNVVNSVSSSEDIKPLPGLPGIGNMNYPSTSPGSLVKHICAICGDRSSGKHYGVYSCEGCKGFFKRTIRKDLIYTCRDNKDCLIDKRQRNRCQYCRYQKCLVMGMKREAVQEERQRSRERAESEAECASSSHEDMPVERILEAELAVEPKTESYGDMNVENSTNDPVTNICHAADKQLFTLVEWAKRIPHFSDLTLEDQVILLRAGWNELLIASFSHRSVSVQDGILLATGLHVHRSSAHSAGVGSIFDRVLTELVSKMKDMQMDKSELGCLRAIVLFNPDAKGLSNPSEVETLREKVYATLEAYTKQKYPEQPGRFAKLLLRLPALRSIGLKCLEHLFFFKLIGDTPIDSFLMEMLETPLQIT
The experiment in a line: RXR binding, RXRγ. The note with it: -v- tritiated LGD1069 and tritiated 9-cis retinoic acid. As to the method: (§1) Non-specific binding was defined as that binding remaining in the presence of 500 nM of the appropriate unlabelled compound. At the end of the incubation period, bound from free ligand were separated. The amount of bound tritiated retinoids was determined by liquid scintillation counting of an aliquot (700 μL) of the supernatant fluid or the hydroxylapatite pellet.
(§2) After correcting for non-specific binding, IC50 values were determined. […] The IC50 value was determined graphically from a log-logit plot of the data. The Kd values were determined by application of the Cheng-Prussof equation to the IC50 values, the labeled ligand concentration and the Kd of the labeled ligand.

The target of series [4] is T3, RXRγ. The experiment in a line: RXR homodimer co-transfection assay, antagonist mode, RXRγ. To be noted: read-out: RXRγ Potency IC50; antagonist potency in the presence of the known RXR agonist LGD1069; CV-1 cells.
For series [5], the target named is T2, RXRβ. Description: RXR binding, RXRβ. The note with it: -v- tritiated LGD1069 and tritiated 9-cis retinoic acid. As to the method: as §1, §2
In another series the target is T4, RXRα:PPARα heterodimer (Homo sapiens, UniProt P19793).
T4 sequence (P19793 1-462): T1 sequence (P19793 1-462)
T4 sequence (Q07869 1-468 partner): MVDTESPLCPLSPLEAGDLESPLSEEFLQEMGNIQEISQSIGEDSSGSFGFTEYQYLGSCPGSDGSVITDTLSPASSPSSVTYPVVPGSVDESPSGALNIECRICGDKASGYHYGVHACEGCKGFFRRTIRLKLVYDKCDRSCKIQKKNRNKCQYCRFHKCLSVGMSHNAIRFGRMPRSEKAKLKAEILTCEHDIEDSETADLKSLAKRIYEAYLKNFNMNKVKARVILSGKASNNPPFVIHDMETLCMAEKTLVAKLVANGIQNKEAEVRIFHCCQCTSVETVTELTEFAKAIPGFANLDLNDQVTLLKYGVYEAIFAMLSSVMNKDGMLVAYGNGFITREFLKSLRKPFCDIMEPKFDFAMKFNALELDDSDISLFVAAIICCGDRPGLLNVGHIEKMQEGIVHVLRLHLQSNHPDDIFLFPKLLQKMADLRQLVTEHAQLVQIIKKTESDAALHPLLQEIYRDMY
The experiment in a line: RXR heterodimer co-transfection assay (RXRα and PPARα, PPARα response element reporter). To be noted: for Fold activation: normalized luciferase values at 10−5M divided by values with vehicle.

Series [6] has as its target T1, RXRα. The experiment in a line: RXR binding, RXRα. To be noted: -v- tritiated LGD1069 and tritiated 9-cis retinoic acid. As for the experimental part: as §1, §2
A further series addresses T5, RXR:RXR homodimer (Homo sapiens, UniProt P19793).
T5 sequence (P19793 1-462): T1 sequence (P19793 1-462)
The experiment in a line: RXR homodimer co-transfection assay (FIG. 1). The note with it: in the presence of known RXR activators (LGD1069, LG100268, 9-cis retinoic acid).

A further series deals with NB4 cells. Description: NB4 myeloid leukemic cell differentiation. The note with it: Compound 122 1 mM, TTNPB, 9-cis retinoic acid, LG100268 100 nM, FIG. 3. It counts as cell-based. As for the experimental part: All points were performed in triplicate for each experiment and varied less than 20%. Each experiment was repeated at least three times with similar results.

In the next series the target is T6, RXRα:RARα heterodimer (Homo sapiens, UniProt P19793).
T6 sequence (P19793 227-458 limits assumed): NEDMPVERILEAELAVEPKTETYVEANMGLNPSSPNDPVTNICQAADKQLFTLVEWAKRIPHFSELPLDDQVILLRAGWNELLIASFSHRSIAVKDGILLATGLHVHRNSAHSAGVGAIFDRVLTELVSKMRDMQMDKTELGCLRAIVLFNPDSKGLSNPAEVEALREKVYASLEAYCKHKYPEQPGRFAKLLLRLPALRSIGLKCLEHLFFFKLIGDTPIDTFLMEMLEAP
T6 sequence (P10276 183-417 partner limits assumed): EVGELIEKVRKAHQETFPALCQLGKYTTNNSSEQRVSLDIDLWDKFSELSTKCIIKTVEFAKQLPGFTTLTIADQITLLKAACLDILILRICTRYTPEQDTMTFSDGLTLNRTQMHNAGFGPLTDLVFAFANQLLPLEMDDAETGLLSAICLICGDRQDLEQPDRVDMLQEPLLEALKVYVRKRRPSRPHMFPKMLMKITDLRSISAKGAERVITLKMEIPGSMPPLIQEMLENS
Description: Gal4-receptor chimera transactivation assay, RXRα:RARα heterodimer.

The target in the next series is T7, RXRα:RXRα homodimer (Homo sapiens, UniProt P19793).
T7 sequence (P19793 227-458 limits assumed): T6 sequence (P19793 227-458 limits assumed)
Description: Gal4-receptor chimera transactivation assay, RXR homodimer.

Entries after “also recorded” stand apart in the source; their conditions may differ.

Description for RXRα:RARα heterodimer: (§3) Briefly, CV-1 cells were transfected in 12 well multi-well plates using 0.1 μg of each receptor and 0.5 μg of reporter per well. Each well was also transfected with 0.5 μg of the β-Gal expression plasmid as an internal control for transfection efficiency. Total plasmid per well was 2 μg made up using the plasmid pGEM. […] Receptor ligand binding domains (LBDs) were fused in-frame downstream to the Gal4 cDNA to produce Gal4-receptor fusion proteins. To express only the receptor LBDs, the LBD was cloned directly downstream to the CMV promoter.
Cells were then washed 2X with PBS and lysed using Promega lysis buffer and assayed for luciferase activity and β-galactosidase activity. All results were normalized against β-Gal.
The above assay system was used because reporter activity is dependent upon the binding of the Gal4 DNA binding domain to copies of its binding site, the UAS (upstream activation sequence), located upstream of the luciferase cDNA. […] Since endogenous receptors lack the Gal4 DNA binding domain, no background activation of the reporter is observed, however, Gal4-receptor LBD fusion proteins can bind the Gal4 site and be activated in a receptor ligand dependent manner. This system, therefore, completely eliminates the low background activity of endogenous receptors in CV-1 cells making it possible to test compound activity on exogenously added receptors.
Description for RXRα:RXRα homodimer: as §3
Cells were then washed 2X with PBS and lysed using Promega lysis buffer and assayed for luciferase activity and β-galactosidase activity. All results were normalized against β-Gal. Each set was done in triplicates and each experiment was carried out at least 3 separate times with similar results.

What is called IC50 is the concentration that gives 50% inhibition. What is called Kd is a measure of binding affinity in units of concentration. Low readings indicate a tighter complex, high ones a looser complex. As a reminder, the EC50 is the concentration needed to bring the measured effect to its halfway point. As to “4-[(3-hexyloxy-5,6,7,8-tetrahydro-5,5,8,8-tetramethyl-2-naphthyl)carbonyl]benzoic acid oxime [Compound 114]”, the figures for the IC50 on RXRα [1], on RXRβ [2] and on RXRγ [4] were 126 nM, 197 nM and 206 nM, respectively. For the same compound, the Kd at RXRγ [3] turned out to be 38 nM; at RXRβ [5], 12 nM; at RXRα [6] it was 9 nM. Moreover, the Fold activation at RXRα:PPARα heterodimer is 4 fold. In addition, at RXRα:PPARα heterodimer (read-out: EC50 (agonist potency), CV-1 cell transfected with both RXRα and PPARα), the EC50 was 200 nM. Besides, the “antagonism of RXR homodimer transactivation (in words)” value (“antagonism” for short) on RXR:RXR homodimer is reported as “function as antagonists”.

With `CC1=C(/C=C/C(C)=C\C=C\C(C)=C\C(=O)O)C(C)(C)CCC1` [9-cis retinoic acid], the “differentiation of NB4 cells (in words)” value in the series with NB4 cells is on record as “stimulate NB4 cells to differentiate”.

`CCCOc1cc2c(cc1\C(C)=C/C=C/C(C)=C/C(=O)O)C(C)(C)CCC2(C)C` [Compound 122, (2E, 4E, 6Z)-7-[3-propoxy-5,5,8,8-tetramethyl-5,6,7,8-tetrahydro-2-naphthalen-2-yl]-3-methylocta-2,4,6-trienoic acid]: in the series with NB4 cells, the “differentiation of NB4 cells (in words)” value is reported as “stimulate NB4 cells to differentiate; also recorded: equally, if not more effective in promoting differentiation of NB4 cells”. Further, the dissociation constant Kd at RXRγ [3] is 33 nM; on RXRβ [5] it was 29 nM.

Regarding `C/C(=C/C=C/C(C)=C/C(=O)O)c1cc2c(cc1OCc1ccc(C)cc1)C(C)(C)CCC2(C)C` [Compound 130, (2E, 4E, 6Z)-7-[3-(4-methylbenzyloxy)-5,6,7,8-tetrahydro-5,5,8,8-tetramethyl-2-naphthalen-2-yl]-3-methylocta-2,4,6-trienoic acid], the “effect on RXRα:RARα heterodimer in combination with TTNPB (in words)” value on RXRα:RARα heterodimer (combined with the RXR:RAR activator TTNPB, data not shown) was “slight increase in activation”. Further, the “agonist activity on RXRα:RARα heterodimers (in words)” value at RXRα:RARα heterodimer (compound alone) is “potent agonists”. The “Fold activation” value on RXRα:RXRα homodimer (CV-1 cells, 100 nM LG100268, LGD1069, 500 nM Compounds 117, 122, 130, 1 mM Compound 131, n.e. = no effect) is “n.e”. At RXRα:RXRα homodimer (compound alone), the “agonist activity on RXR homodimers in the GAL4 transfection assay (in words)” value was “inactive”. Moreover, the “antagonist activity on RXR homodimers in the GAL4 transfection assay (in words)” value at RXRα:RXRα homodimer (in combination with either LGD1069 or LG100268) is “strong antagonists”. Moreover, the “Fold Repression” value at RXRα:RXRα homodimer (in combination with either LGD1069 or LG100268, 500 nM Compounds 117, 122, 130, 1 mM Compound 131) is 25-75 fold.

One may read the melting point as the temperature, or range, at which the solid turns liquid. `CC1(C)CCC(C)(C)c2cc3c(cc21)CCCN3Cc1ccc(C(=O)O)cc1` [Compound 135, 4-(3,4,6,7,8,9-hexahydro-6,6,9,9-tetramethyl-2H-benzo[g]quinolin-1-ylmethyl)benzoic acid] showed a melting point of 173 to 175 °C. On RXRγ [3], this compound showed a Kd of 181 nM. Further, at RXRβ [5], the Kd stood at 155 nM. Moreover, the Fold activation at RXRα:PPARα heterodimer is recorded as 5 fold. The Kd at RXRα [6] was 163 nM. Also, the “antagonism” value on RXR:RXR homodimer was “function as antagonists”.

Take `CCCCCCCOc1c(\C(C)=C/C=C/C(C)=C/C(=O)O)cc(C(C)C)cc1C(C)C` [Compound 147, (2E, 4E, 6Z)-7-(3,5-diisopropyl-2-n-heptyloxyphenyl)-3-methylocta-2,4,6-trienoic acid]: the Kd at RXRγ [3] worked out at 6 nM; at RXRβ [5], 8 nM; at RXRα [6] it was 3 nM. For the same compound, on RXR:RXR homodimer, the “antagonism” value is given as “especially potent antagonist”.

Regarding `Cc1cc2c(cc1C1(c3ccc(C(=O)O)cn3)CC1)C(C)(C)CCC2(C)C` [LG100268, 6-[1-(3,5,5,8,8-pentamethyl-5,6,7,8-tetrahydronaphthalen-2-yl)cyclopropyl]nicotinic acid], the “differentiation of NB4 cells (in words)” value in the series with NB4 cells is reported as “does not promote NB4 differentiation”; with NB4 cells (listed as LB100268) it was “does not”.

For `C/C(=C\c1ccc(C(=O)O)cc1)c1ccc2c(c1)C(C)(C)CCC2(C)C` [TTNPB, (E)-4-[2-(5,6,7,8-tetrahydro-5,5,8,8-tetramethyl-2-naphthalenyl)-1-propenyl]benzoic acid], the “differentiation of NB4 cells (in words)” value with NB4 cells is recorded as “stimulate NB4 cells to differentiate”.
